# Experimental data as given in ChEMBL document CHEMBL1201861, “Genomics of Drug Sensitity in Cancer screening data, Wellcome Trust Sanger Institute”.
# Experiments:
# Test in all cases: cells
# Format in all cases: functional, cell-based, Homo sapiens
# BFTC-909 = test system: BFTC-909
# Description: SANGER: Inhibition of human BFTC-909 cell growth in a cell viability assay.
# NCI-H2347 = test system: NCI-H2347;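 note: growth inhibition of the cell line, read out with a cell viability assay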
# Description: SANGER: Inhibition of human NCI-H2347 cell growth in a cell viability assay.
# H9 = test system: H9
# Description: SANGER: Inhibition of human H9 cell growth in a cell viability assay.
# OVCAR-5 = test system: OVCAR-5;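 note: growth inhibition of human OVCAR-5 cells, read out with a cell viability assay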
# Description: SANGER: Inhibition of human OVCAR-5 cell growth in a cell viability assay.
# IGROV-1 = test system: IGROV-1;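 note: reduction of IGROV-1 cell growth, read out with a viability assay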
# Description: SANGER: Inhibition of human IGROV-1 cell growth in a cell viability assay.
# Kasumi 1 = test system: Kasumi 1;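 note: growth inhibition of human Kasumi-1 cells, read out by a cell viability assay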
# Description: SANGER: Inhibition of human KASUMI-1 cell growth in a cell viability assay.
# SNU-423 = test system: SNU-423
# Description: SANGER: Inhibition of human SNU-423 cell growth in a cell viability assay.
# EFO-27 = test system: EFO-27;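 note: growth inhibition of EFO-27 cells, read out with a cell viability assay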
# Description: SANGER: Inhibition of human EFO-27 cell growth in a cell viability assay.
# U-251 = test system: U-251;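 note: growth inhibition of human U-251 cells, read out through a cell viability assay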
# Description: SANGER: Inhibition of human U251 cell growth in a cell viability assay.
# UACC-62 = test system: UACC-62;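 note: growth inhibition of human UACC-62 cells, read out by a cell viability assay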
# Description: SANGER: Inhibition of human UACC-62 cell growth in a cell viability assay.
# KP-4 = test system: KP-4;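 note: human KP-4 cells, with growth inhibition read out through a cell viability assay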
# Description: SANGER: Inhibition of human KP-4 cell growth in a cell viability assay.
# HCC1395 = test system: HCC1395;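 note: growth inhibition of HCC1395 cells, read out by a cell viability assay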
# Description: SANGER: Inhibition of human HCC1395 cell growth in a cell viability assay.
# LU-135 = test system: LU-135
# Description: SANGER: Inhibition of human LU-135 cell growth in a cell viability assay.
# KU-19-19 = test system: KU-19-19
# Description: SANGER: Inhibition of human KU-19-19 cell growth in a cell viability assay.
# SCC-9 = test system: SCC-9;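 note: Read-out is a cell viability assay, with values giving inhibition of cell growth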
# Description: SANGER: Inhibition of human SCC-9 cell growth in a cell viability assay.
# COLO-678 = test system: COLO-678
# Description: SANGER: Inhibition of human COLO-678 cell growth in a cell viability assay.
# TI-73 = test system: TI-73;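 note: cell viability assay measuring how much compounds suppress growth of the cultured cell line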
# Description: SANGER: Inhibition of human TI-73 cell growth in a cell viability assay.
# GCT = test system: GCT;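 note: GCT cell line proliferation inhibition, read out with a cell viability assay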
# Description: SANGER: Inhibition of human GCT cell growth in a cell viability assay.
# NCI-H1975 = test system: NCI-H1975
# Description: SANGER: Inhibition of human NCI-H1975 cell growth in a cell viability assay.
# MEL-JUSO = test system: MEL-JUSO;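 note: growth inhibition of human MEL-JUSO cells, read out with a cell viability assay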
# Description: SANGER: Inhibition of human MEL-JUSO cell growth in a cell viability assay.
# Detroit 562 = test system: Detroit 562;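 note: growth inhibition of human Detroit 562 cells, read out by a cell viability assay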
# Description: SANGER: Inhibition of human Detroit562 cell growth in a cell viability assay.
# Huh-7 = test system: Huh-7;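 note: HuH-7 cell growth inhibition, read out with a cell viability assay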
# Description: SANGER: Inhibition of human HuH-7 cell growth in a cell viability assay.
# TCC-SUP = test system: TCC-SUP;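 note: growth inhibition of TCC-SUP cells, read out with a cell viability assay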
# Description: SANGER: Inhibition of human TCCSUP cell growth in a cell viability assay.
# 8305C = test system: 8305C
# Description: SANGER: Inhibition of human 8305C cell growth in a cell viability assay.
# FTC-133 = test system: FTC-133
# CAPAN-1 = test system: CAPAN-1;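 note: growth suppression of CAPAN-1 cells, read out by a cell viability assay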
# Description: SANGER: Inhibition of human CAPAN-1 cell growth in a cell viability assay.
# SW948 = test system: SW948;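 note: growth inhibition of SW948 cells, read out with a cell viability assay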
# Description: SANGER: Inhibition of human SW948 cell growth in a cell viability assay.
# ACHN = test system: ACHN;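 note: cell viability read-out used to gauge how strongly growth of human ACHN cells is suppressed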
# Description: SANGER: Inhibition of human ACHN cell growth in a cell viability assay.
# HSC-4 = test system: HSC-4;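 note: growth inhibition of human HSC-4 cells, read out with a cell viability assay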
# Description: SANGER: Inhibition of human HSC-4 cell growth in a cell viability assay.
compound,measurement,setting,value
CISPLATIN,IC50,BFTC-909; bftc-909,14.9 µM
same,IC50,NCI-H2347; nci-h2347,218 µM
same,IC50,H9; h9,3.65 µM
same,IC50,OVCAR-5; ovcar-5,4.02 µM
same,IC50,IGROV-1; igrov-1,0.343 µM
same,IC50,Kasumi 1; kasumi 1,62.1 µM
same,IC50,SNU-423; snu-423,111 µM
same,IC50,EFO-27; efo-27,13.2 µM
same,IC50,U-251; u-251,11.6 µM
same,IC50,UACC-62; uacc-62,12.4 µM
same,IC50,KP-4; kp-4,11.7 µM
same,IC50,HCC1395; hcc1395,143 µM
same,IC50,LU-135; lu-135,33.8 µM
same,IC50,KU-19-19; ku-19-19,10.1 µM
same,IC50,SCC-9; scc-9,23.6 µM
same,IC50,COLO-678; colo-678,621 µM
same,IC50,TI-73; ti-73,8.53 µM
same,IC50,GCT; gct,6.12 µM
same,IC50,NCI-H1975; nci-h1975,409 µM
same,IC50,MEL-JUSO; mel-juso,18.8 µM
same,IC50,Detroit 562; detroit 562,38.3 µM
same,IC50,Huh-7; huh-7,40.9 µM
same,IC50,TCC-SUP; tcc-sup,8.5 µM
same,IC50,8305C; 8305c,61.6 µM
same,IC50,FTC-133; ftc-133,4.77 µM
same,IC50,CAPAN-1; capan-1,24.3 µM
same,IC50,SW948; sw948,222 µM
same,IC50,ACHN; achn,8.05 µM
same,IC50,HSC-4; hsc-4,1.58 µM
Cc1cn(-c2cc(NC(=O)c3ccc(C)c(Nc4nccc(-c5cccnc5)n4)c3)cc(C(F)(F)F)c2)cn1 [NILOTINIB],IC50,"BFTC-909; Homo sapiens, BFTC-909",> 2 µM
same,IC50,"NCI-H2347; Homo sapiens, NCI-H2347",> 2 µM
same,IC50,"H9; Homo sapiens, H9",> 2 µM
same,IC50,"OVCAR-5; Homo sapiens, OVCAR-5",> 2 µM
same,IC50,"IGROV-1; Homo sapiens, IGROV-1",> 2 µM
same,IC50,"Kasumi 1; Homo sapiens, Kasumi 1",0.0241 µM
same,IC50,"SNU-423; Homo sapiens, SNU-423",> 2 µM
same,IC50,"EFO-27; Homo sapiens, EFO-27",> 2 µM
same,IC50,"U-251; Homo sapiens, U-251",> 2 µM
same,IC50,"UACC-62; Homo sapiens, UACC-62",> 2 µM
same,IC50,"KP-4; Homo sapiens, KP-4",> 2 µM
same,IC50,"HCC1395; Homo sapiens, HCC1395",> 2 µM
same,IC50,"LU-135; Homo sapiens, LU-135",> 2 µM
same,IC50,"KU-19-19; Homo sapiens, KU-19-19",> 2 µM
same,IC50,"SCC-9; Homo sapiens, SCC-9",> 2 µM
same,IC50,"COLO-678; Homo sapiens, COLO-678",> 2 µM
same,IC50,"TI-73; Homo sapiens, TI-73",> 2 µM
same,IC50,"GCT; Homo sapiens, GCT",> 2 µM
same,IC50,"NCI-H1975; Homo sapiens, NCI-H1975",> 2 µM
same,IC50,"MEL-JUSO; Homo sapiens, MEL-JUSO",> 2 µM
same,IC50,"Detroit 562; Homo sapiens, Detroit 562",> 2 µM
same,IC50,"Huh-7; Homo sapiens, Huh-7",> 2 µM
same,IC50,"TCC-SUP; Homo sapiens, TCC-SUP",> 2 µM
same,IC50,"8305C; Homo sapiens, 8305C",> 2 µM
same,IC50,"FTC-133; Homo sapiens, FTC-133",> 2 µM
same,IC50,"CAPAN-1; Homo sapiens, CAPAN-1",> 2 µM
same,IC50,"SW948; Homo sapiens, SW948",> 2 µM
same,IC50,"ACHN; Homo sapiens, ACHN",> 2 µM
same,IC50,"HSC-4; Homo sapiens, HSC-4",> 2 µM
CN(C)C(=N)NC(=N)N [METFORMIN],IC50,"BFTC-909; Homo sapiens, BFTC-909",> 20000 µM
same,IC50,"H9; Homo sapiens, H9",7140 µM
same,IC50,"OVCAR-5; Homo sapiens, OVCAR-5",> 20000 µM
same,IC50,"IGROV-1; Homo sapiens, IGROV-1",> 20000 µM
same,IC50,"Kasumi 1; Homo sapiens, Kasumi 1",378 µM
same,IC50,"SNU-423; Homo sapiens, SNU-423",> 20000 µM
same,IC50,"EFO-27; Homo sapiens, EFO-27",> 20000 µM
same,IC50,"U-251; Homo sapiens, U-251",9900 µM
same,IC50,"KP-4; Homo sapiens, KP-4",7050 µM
same,IC50,"HCC1395; Homo sapiens, HCC1395",> 20000 µM
same,IC50,"KU-19-19; Homo sapiens, KU-19-19",9610 µM
same,IC50,"SCC-9; Homo sapiens, SCC-9",10200 µM
same,IC50,"COLO-678; Homo sapiens, COLO-678",> 20000 µM
same,IC50,"TI-73; Homo sapiens, TI-73",13600 µM
same,IC50,"NCI-H1975; Homo sapiens, NCI-H1975",11700 µM
same,IC50,"MEL-JUSO; Homo sapiens, MEL-JUSO",16000 µM
same,IC50,"Detroit 562; Homo sapiens, Detroit 562",16500 µM
same,IC50,"Huh-7; Homo sapiens, Huh-7",15500 µM
same,IC50,"TCC-SUP; Homo sapiens, TCC-SUP",4010 µM
same,IC50,"FTC-133; Homo sapiens, FTC-133",> 20000 µM
same,IC50,"CAPAN-1; Homo sapiens, CAPAN-1",> 20000 µM
same,IC50,"SW948; Homo sapiens, SW948",> 20000 µM
same,IC50,"ACHN; Homo sapiens, ACHN",> 20000 µM
same,IC50,"HSC-4; Homo sapiens, HSC-4",5480 µM
CS(=O)(=O)c1ccc(C(=O)Nc2ccc(Cl)c(-c3ccccn3)c2)c(Cl)c1 [VISMODEGIB],IC50,"BFTC-909; Homo sapiens, BFTC-909",> 10 µM
same,IC50,"NCI-H2347; Homo sapiens, NCI-H2347",> 10 µM
same,IC50,"OVCAR-5; Homo sapiens, OVCAR-5",> 10 µM
same,IC50,"IGROV-1; Homo sapiens, IGROV-1",0.0725 µM
same,IC50,"SNU-423; Homo sapiens, SNU-423",> 10 µM
same,IC50,"EFO-27; Homo sapiens, EFO-27",> 10 µM
same,IC50,"U-251; Homo sapiens, U-251",> 10 µM
same,IC50,"UACC-62; Homo sapiens, UACC-62",> 10 µM
same,IC50,"KP-4; Homo sapiens, KP-4",> 10 µM
same,IC50,"HCC1395; Homo sapiens, HCC1395",> 10 µM
same,IC50,"LU-135; Homo sapiens, LU-135",> 10 µM
same,IC50,"KU-19-19; Homo sapiens, KU-19-19",> 10 µM
same,IC50,"SCC-9; Homo sapiens, SCC-9",> 10 µM
same,IC50,"COLO-678; Homo sapiens, COLO-678",> 10 µM
same,IC50,"TI-73; Homo sapiens, TI-73",> 10 µM
same,IC50,"GCT; Homo sapiens, GCT",> 10 µM
same,IC50,"NCI-H1975; Homo sapiens, NCI-H1975",> 10 µM
same,IC50,"MEL-JUSO; Homo sapiens, MEL-JUSO",> 10 µM
same,IC50,"Detroit 562; Homo sapiens, Detroit 562",> 10 µM
same,IC50,"Huh-7; Homo sapiens, Huh-7",> 10 µM
same,IC50,"TCC-SUP; Homo sapiens, TCC-SUP",> 10 µM
same,IC50,"8305C; Homo sapiens, 8305C",> 10 µM
same,IC50,"FTC-133; Homo sapiens, FTC-133",> 10 µM
same,IC50,"CAPAN-1; Homo sapiens, CAPAN-1",> 10 µM
same,IC50,"SW948; Homo sapiens, SW948",> 10 µM
same,IC50,"ACHN; Homo sapiens, ACHN",> 10 µM
same,IC50,"HSC-4; Homo sapiens, HSC-4",> 10 µM
CO[C@H]1C[C@@H]2CC[C@@H](C)[C@@](O)(O2)C(=O)C(=O)N2CCCC[C@H]2C(=O)O[C@H]([C@H](C)C[C@@H]2CC[C@@H](OC(=O)C(C)(CO)CO)[C@H](OC)C2)CC(=O)[C@H](C)/C=C(\C)[C@@H](O)[C@@H](OC)C(=O)[C@H](C)C[C@H](C)/C=C/C=C/C=C/1C [TEMSIROLIMUS],IC50,"BFTC-909; Homo sapiens, BFTC-909",> 0.2 µM
same,IC50,"NCI-H2347; Homo sapiens, NCI-H2347",> 0.2 µM
same,IC50,"H9; Homo sapiens, H9",0.00488 µM
same,IC50,"OVCAR-5; Homo sapiens, OVCAR-5",0.124 µM
same,IC50,"IGROV-1; Homo sapiens, IGROV-1",0.0388 µM
same,IC50,"Kasumi 1; Homo sapiens, Kasumi 1",0.0562 µM
same,IC50,"SNU-423; Homo sapiens, SNU-423",0.173 µM
same,IC50,"EFO-27; Homo sapiens, EFO-27",0.0331 µM
same,IC50,"U-251; Homo sapiens, U-251",> 0.2 µM
same,IC50,"UACC-62; Homo sapiens, UACC-62",> 0.2 µM
same,IC50,"KP-4; Homo sapiens, KP-4",0.116 µM
same,IC50,"HCC1395; Homo sapiens, HCC1395",> 0.2 µM
same,IC50,"LU-135; Homo sapiens, LU-135",> 0.2 µM
same,IC50,"KU-19-19; Homo sapiens, KU-19-19",> 0.2 µM
same,IC50,"SCC-9; Homo sapiens, SCC-9",> 0.2 µM
same,IC50,"COLO-678; Homo sapiens, COLO-678",> 0.2 µM
same,IC50,"TI-73; Homo sapiens, TI-73",> 0.2 µM
same,IC50,"GCT; Homo sapiens, GCT",> 0.2 µM
same,IC50,"NCI-H1975; Homo sapiens, NCI-H1975",> 0.2 µM
same,IC50,"MEL-JUSO; Homo sapiens, MEL-JUSO",0.0666 µM
same,IC50,"Detroit 562; Homo sapiens, Detroit 562",> 0.2 µM
same,IC50,"Huh-7; Homo sapiens, Huh-7",0.0123 µM
same,IC50,"TCC-SUP; Homo sapiens, TCC-SUP",0.0823 µM
same,IC50,"8305C; Homo sapiens, 8305C",> 0.2 µM
same,IC50,"FTC-133; Homo sapiens, FTC-133",0.0506 µM
same,IC50,"CAPAN-1; Homo sapiens, CAPAN-1",> 0.2 µM
same,IC50,"SW948; Homo sapiens, SW948",> 0.2 µM
same,IC50,"ACHN; Homo sapiens, ACHN",> 0.2 µM
same,IC50,"HSC-4; Homo sapiens, HSC-4",< 0.000781 µM
Nc1cccc2c1CN(C1CCC(=O)NC1=O)C2=O (configuration not stated) [LENALIDOMIDE],IC50,"BFTC-909; Homo sapiens, BFTC-909",> 5 µM
same,IC50,"NCI-H2347; Homo sapiens, NCI-H2347",> 5 µM
same,IC50,"H9; Homo sapiens, H9",> 5 µM
same,IC50,"OVCAR-5; Homo sapiens, OVCAR-5",> 5 µM
same,IC50,"IGROV-1; Homo sapiens, IGROV-1",> 5 µM
same,IC50,"Kasumi 1; Homo sapiens, Kasumi 1",> 5 µM
same,IC50,"SNU-423; Homo sapiens, SNU-423",> 5 µM
same,IC50,"EFO-27; Homo sapiens, EFO-27",> 5 µM
same,IC50,"U-251; Homo sapiens, U-251",> 5 µM
same,IC50,"UACC-62; Homo sapiens, UACC-62",> 5 µM
same,IC50,"KP-4; Homo sapiens, KP-4",> 5 µM
same,IC50,"HCC1395; Homo sapiens, HCC1395",> 5 µM
same,IC50,"LU-135; Homo sapiens, LU-135",> 5 µM
same,IC50,"KU-19-19; Homo sapiens, KU-19-19",> 5 µM
same,IC50,"SCC-9; Homo sapiens, SCC-9",> 5 µM
same,IC50,"COLO-678; Homo sapiens, COLO-678",> 5 µM
same,IC50,"TI-73; Homo sapiens, TI-73",> 5 µM
same,IC50,"GCT; Homo sapiens, GCT",> 5 µM
same,IC50,"NCI-H1975; Homo sapiens, NCI-H1975",> 5 µM
same,IC50,"MEL-JUSO; Homo sapiens, MEL-JUSO",> 5 µM
same,IC50,"Detroit 562; Homo sapiens, Detroit 562",> 5 µM
same,IC50,"Huh-7; Homo sapiens, Huh-7",> 5 µM
same,IC50,"TCC-SUP; Homo sapiens, TCC-SUP",> 5 µM
same,IC50,"8305C; Homo sapiens, 8305C",> 5 µM
same,IC50,"FTC-133; Homo sapiens, FTC-133",> 5 µM
same,IC50,"CAPAN-1; Homo sapiens, CAPAN-1",> 5 µM
same,IC50,"SW948; Homo sapiens, SW948",> 5 µM
same,IC50,"ACHN; Homo sapiens, ACHN",> 5 µM
same,IC50,"HSC-4; Homo sapiens, HSC-4",> 5 µM
